Source: article PMC7722097 (ChemMedChem, 2020)
Entries after “also recorded” stand apart in the source; their conditions may differ.

Tests used:
cIAP1-BIR3 = cIAP1-BIR3 (Homo sapiens, UniProt Q13490); test: DELFIA displacement assay, cIAP1-BIR3; format: binding
cIAP2-BIR3 = cIAP2-BIR3 (Homo sapiens, UniProt Q13489); test: DELFIA displacement assay, cIAP2-BIR3; format: binding
BIR3 domain of XIAP [1] = target: T1, BIR3 domain of XIAP (Homo sapiens, UniProt P98170); test: DELFIA displacement assay, XIAP-BIR3; format: binding
BIR3 domain of XIAP [2] = target: T1, BIR3 domain of XIAP; test: Kinetic analysis using the DELFIA assay; format: binding
[3] = target: HA-BIR3 of XIAP-expressing HEK293T cells (Homo sapiens, UniProt P98170); test: Immunoblot of HA-BIR3 XIAP-expressing HEK293T cells; format: cell-based; conditions: 10 μM compound, 6 h, anti-HA antibody
[4] = target: wt-BIR3 (Lys311) domain of XIAP (Homo sapiens, UniProt P98170); test: Denaturation thermal shift, wt BIR3 of XIAP; conditions: for Thermal shift data ATm XIAP-BIR3: Table 2
Sequence of wt-BIR3 (Lys311) domain of XIAP (P98170 253-347): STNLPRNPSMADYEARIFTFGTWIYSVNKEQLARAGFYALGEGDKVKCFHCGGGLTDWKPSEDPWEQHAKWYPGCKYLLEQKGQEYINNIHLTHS

T1 sequence (P98170 253-347): as above
Sequence of HA-BIR3 of XIAP-expressing HEK293T cells (P98170 253-347 limits assumed): as the sequence (P98170 253-347) above
Sequence of cIAP2-BIR3 (Q13489 244-349): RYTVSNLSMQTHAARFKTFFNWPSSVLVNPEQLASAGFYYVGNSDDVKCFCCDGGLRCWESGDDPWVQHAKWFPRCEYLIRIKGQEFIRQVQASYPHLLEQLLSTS
Sequence of cIAP1-BIR3 (Q13490 258-363): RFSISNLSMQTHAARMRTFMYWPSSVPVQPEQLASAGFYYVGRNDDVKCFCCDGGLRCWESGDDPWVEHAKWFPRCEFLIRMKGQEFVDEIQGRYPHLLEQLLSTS

| Structure (SMILES) | IC50 (cIAP1-BIR3) [nM] | IC50 (cIAP2-BIR3) [nM] | IC50 (BIR3 domain of XIAP [1]) [nM] | Selectivity XIAP vs cIAP1/2, in words (BIR3 domain of XIAP [1]; from DELFIA IC50 values of Table 2) | Ki (BIR3 domain of XIAP [2]) [nM] | Covalent adduct formation in cell (band shift) [3] | Stabilization of HA-BIR3 in cell (western blot band intensity) [3] | Thermal shift data ATm XIAP-BIR3 ([4]; pre-incubation 30min (top value) at room temperature) [°C] | Thermal shift data ATm XIAP-BIR3 ([4]; pre-incubation 2h (bottom value) at room temperature) [°C] | ΔTm, BIR3 domain of XIAP, as stated in text or legend ([4]; approximate values or bounds in running text, incubation 30 min or 2 h) [°C] |
| --- | --- | --- | --- | --- | --- | --- | --- | --- | --- | --- |
| CN[C@@H](C)C(=O)N[C@@H](CNCc1ccc(S(=O)(=O)F)cc1)C(=O)N1CCC[C@H]1C(=O)N[C@@H]1CCc2c(F)cccc21 [compound 12, 4-((((S)-3-((S)-2-(((R)-4-fluoro-2,3-dihydro-1Hinden-1-yl)carbamoyl)pyrrolidin-1-yl)-2-((S)-2(methylamino)propanamido)-3oxopropyl)amino)methyl)benzene-1-sulfonyl fluoride] | 22 ± 4 | 58.5 ± 0.1 | – | – | – | – | – | – | – | – |
| CN[C@@H](C)C(=O)N[C@@H](CNC(=O)c1ccc(S(=O)(=O)F)c(OC)c1)C(=O)N1CCC[C@H]1C(=O)N[C@@H]1CCc2c(F)cccc21 [compound 13, 4-(((S)-3-((S)-2-(((R)-4-fluoro-2,3-dihydro-1Hinden-1-yl)carbamoyl)pyrrolidin-1-yl)-2-((S)-2(methylamino)propanamido)-3-oxopropyl)carbamoyl)-2methoxybenzene-1-sulfonyl fluoride] | 141 ± 15 | 492 ± 26 | 15.6 ± 0.8 | more potent towards XIAP; also recorded: significantly more selective for XIAP compared to cIAP1/2 | 85 ± 3 | band shift | stabilized HA-BIR3; also recorded: most intense band | 27.0 ± 0.2 | 27.2 ± 0.1 | > 20 |
